Results: US10184115B2, “Mutated cellobiose dehydrogenase with increased substrate specificity” (DIRECTSENS GMBH, priority 2012, dated 2019)

Biological target: T1, Myriococcum thermophilum cellobiose dehydrogenase (CDH, SEQ ID NO: 1) variant W316R (Thermothelomyces myriococcoides, UniProt A9XK88, W316R)
T1 sequence (A9XK88 22-828 W316R): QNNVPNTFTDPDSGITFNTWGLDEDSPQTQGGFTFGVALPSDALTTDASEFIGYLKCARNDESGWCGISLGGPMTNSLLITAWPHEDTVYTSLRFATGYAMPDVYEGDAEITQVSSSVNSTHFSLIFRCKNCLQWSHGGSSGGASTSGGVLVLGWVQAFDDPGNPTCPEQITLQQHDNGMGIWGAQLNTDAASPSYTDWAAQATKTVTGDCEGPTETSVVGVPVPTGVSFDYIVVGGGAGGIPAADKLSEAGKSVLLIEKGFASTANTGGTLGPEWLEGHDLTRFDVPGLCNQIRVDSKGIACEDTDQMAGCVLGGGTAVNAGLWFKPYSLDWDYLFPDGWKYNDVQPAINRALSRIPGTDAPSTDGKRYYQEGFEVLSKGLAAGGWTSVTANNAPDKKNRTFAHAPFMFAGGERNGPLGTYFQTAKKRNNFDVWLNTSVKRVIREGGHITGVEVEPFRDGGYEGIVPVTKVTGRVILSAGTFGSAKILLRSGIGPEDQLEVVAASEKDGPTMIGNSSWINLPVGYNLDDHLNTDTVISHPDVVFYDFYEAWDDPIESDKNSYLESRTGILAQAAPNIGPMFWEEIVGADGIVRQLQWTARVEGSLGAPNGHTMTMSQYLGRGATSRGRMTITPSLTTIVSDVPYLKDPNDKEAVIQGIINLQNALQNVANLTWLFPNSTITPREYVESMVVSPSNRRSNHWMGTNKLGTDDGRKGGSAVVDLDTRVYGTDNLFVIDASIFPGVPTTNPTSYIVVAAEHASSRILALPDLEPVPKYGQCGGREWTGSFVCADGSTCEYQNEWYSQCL
Assay: Steady-state kinetics, DCIP assay: M. thermophilum CDH W316R
Type: biochemical
Conditions: apparent, pH 4.5, 30° C.
Experimental: Enzyme activity was assayed at 30° C. using either the DCIP (Karapetyan et al., 2005 Journal of Biotechnology 121: 34-48) or cytochrome c (Canevascini et al., 1991, European Journal of Biochemistry 198: 43-52) as electron acceptor. […] Stock solutions of carbohydrates used for kinetic measurements were prepared in the respective buffer and allowed to stand overnight for mutarotation, while stock solutions of electron acceptors were prepared in water and immediately used. The reaction stoichiometry is 1 for the two-electron acceptor DCIP (1 mole of DCIP reduced per mole of carbohydrate oxidized), but 2 for the one-electron acceptor cytochrome c. Kinetic constants were calculated by fitting the observed data to the Henri-Michaelis-Menten equation or to the adapted model for substrate inhibition using nonlinear least-squares regression and the program SigmaPlot (Systat Software, San Jose, Calif., USA). […]
Recombinant wild-type CDH as well as variants were produced in 1 L baffled flasks. […] Increase in activity was monitored using the DCIP and the cytochrome c enzyme assays. […]
The sample was loaded on a 20 mL PHE Sepharose FF column (HR26/20) equilibrated with 50 mM Na-acetate buffer pH 5.5 containing 20% ammonium sulfate. […] Fractions were tested for CDH activity and pooled according to the highest Reinheitszahl (RZ, calculated from the absorbance ratio 420 nm/280 nm). […]

Compound: OC[C@H]1O[C@H](O[C@H]2[C@H](O)[C@@H](O)C(O)O[C@@H]2CO)[C@H](O)[C@@H](O)[C@@H]1O (some centres unmarked) [Maltose, maltose]
- kcat/KM: 0.09 M⁻¹ s⁻¹
- kcat (~ values only estimated by non linear regression): 0.12 s⁻¹
